Reference: ChEMBL document CHEMBL5726238, “Phenyl and pyridinyl substituted piperidines and piperazines as inhibitors of IDH1 mutants and their use in treating cancer” (2017)
pIC50: −log10 of the molar value.

Each compound was assayed against Isocitrate dehydrogenase [NADP] cytoplasmic (Homo sapiens, UniProt O75874, R132H) (assay: Inhibition Assay: Assays were conducted in a volume of 76 μl assay buffer (150 mM NaCl, 10 mM MgCl2, 20 mM Tris pH 7.5, 0.03% bovine serum albumin) as follows in a standard 384-well plate: To 25 ul of substrate mix (8 uM NADPH, 2 mM aKG), 1 μl of test compound was added in DMSO. […] The reaction was incubated for 50 minutes at room temperature, then 25 μl of detection mix (30 μM resazurin, […]) was added and the mixture further incubated for 5 minutes at room temperature.).
Chain of Isocitrate dehydrogenase [NADP] cytoplasmic (O75874 2-414 R132H limits assumed): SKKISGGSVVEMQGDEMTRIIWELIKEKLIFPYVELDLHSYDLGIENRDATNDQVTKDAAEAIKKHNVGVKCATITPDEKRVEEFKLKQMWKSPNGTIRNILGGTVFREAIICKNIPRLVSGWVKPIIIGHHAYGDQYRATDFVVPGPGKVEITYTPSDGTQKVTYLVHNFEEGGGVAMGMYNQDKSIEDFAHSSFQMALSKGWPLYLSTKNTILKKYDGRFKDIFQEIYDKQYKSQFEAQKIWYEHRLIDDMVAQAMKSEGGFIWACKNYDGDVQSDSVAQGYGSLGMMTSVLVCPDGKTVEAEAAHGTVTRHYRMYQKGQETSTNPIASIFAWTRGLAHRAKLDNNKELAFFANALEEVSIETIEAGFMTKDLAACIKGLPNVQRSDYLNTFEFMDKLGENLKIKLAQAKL

Structure (SMILES)	pIC50
C=CC(=O)N1CCc2c(C3CC3)nc(N3CCN(C(=O)C4CC4)[C@H](C4CC4)C3)c(C#N)c2C1	> 6.30
CC(C)c1nc(N2CCN(C(=O)Cc3cccs3)CC2)c(C#N)c2c1COC(C)(C)C2	5.00 to 6.00
COCCC(=O)N1CCN(c2nc(C3CC3)c3c(c2C#N)CN(S(C)(=O)=O)CC3)C[C@H]1C1CC1	> 6.30

Results, then the compound that gave them:

pIC50	Structure (SMILES)
> 6.30	CC(C)[C@@H]1CN(c2nc(C3CC3)c3c(c2C#N)CC(C)(C)OC3)CCN1C(=O)CCC(=O)OCCO
> 6.30	C#CC(=O)N1CCc2c(C#N)c(N3CCN(C(=O)CCOC)[C@H](C4CC4)C3)nc(C3CC3)c2C1
